Source: patent US7659240B2, “Mucin immobilized chromatography” (Vertex Pharmaceuticals Incorporated, priority 2002, dated 2010)
“And” between values parts separate entries of the source, which are not always exact repeats. Equal entries are not always repeated. Structures can show the parent of a compound that is named as a salt. Where two headings read alike, the source gives them in different places.

What was measured:
[1] = from literature; cited from earlier work
[2] = system: mucin immobilized to IAM.PC.DD2; assay: HPLC on MIC column (2:1 mucin to PC IAM particles): retention time, k′MIC, derived Km and Peff MIC; details: for log k′MIC / K′MIC: MIC 2:1; for k′MIC / Retention Time: MIC column 2:1 mucin:IAM, MPS pH 7.4; for Retention Time: isocratic 0.3 ml/min; for Dm: membrane diffusion coefficient calculated from molecular weight
Experimental: [formula] where Dm is the membrane diffusion coefficient of the solute, Km is the membrane equilibrium constant, and L is the membrane thickness (Stein, W., Transport and Diffusion Across Cell Membranes, Academic Press, Orlando, Fla. (1986)). […] Since molecular weight, MW, is proportional to molecular size, Dm may also written as,
[formula] Thus, Dm can be calculated from the molecular weight. Furthermore, Km is calculated by the following equation, Km−(Vm/Vs)k′, [4] where Vm is the volume of the mobile phase, Vs is the internal volume of the stationary phase, and k′ is the partition ratio (Pidgeon and Ong, Chemtech. June, 38-48 (1995)). The partition ratio is determined by the equation, k′−(tr−to)/to, [5] where tr is the retention time of the drug and to is the void volume of the column. Both tr and to can be experimentally determined in order to obtain k′.
Equation 2 can be used to determine Km for a given MIC medium. Both Dm and L are known from the discussion above, and Peff can be calculated for various drugs having known in vivo absorption. For example, a number of drug permeability coefficients, Peff, derived from in vivo experiments are listed in literature. […] See Example 5 below.

[3] = cited from earlier work
[4] = system: mucin immobilized to PC IAM particles; assay: pH and mucin layer thickness dependence of partition ratio on MIC columns (1:2 and 2:1); details: for k′MIC (1:2): column 1:2, 0.32 μm; for k′MIC (1:2) / k′MIC (2:1): pH 7, Table 9; for (1:2) k′ (pH 3) / (1:2) k′ (pH 5) / (1:2) k′ (pH 7): column 1:2 mucin to PC IAM, 0.32 μm mucin layer; for (1:2) k′ (pH 3) / (2:1) k′ (pH 3): mobile phase pH 3; for (1:2) k′ (pH 5) / (2:1) k′ (pH 5): mobile phase pH 5; for (1:2) k′ (pH 7) / (2:1) k′ (pH 7): mobile phase pH 7; for k′MIC (2:1): column 2:1, 0.36 μm; for (2:1) k′ (pH 3) / (2:1) k′ (pH 5) / (2:1) k′ (pH 7): column 2:1 mucin to PC IAM, 0.36 μm mucin layer
Experimental: Samples were dissolved in mobile phase solution and filtered (filter pore size, 0.45 μm) prior to injection. […] From this measurement and a measurement of the void volume (t0) the k′MIC could be determined. In addition, from the molecular weight of the compounds, Dm could be determined. These compounds, with the exceptions noted below, were used to generate the column constant (Vm/Vs).
For these reasons, the influence of pH on drug retention times was measured on columns having two different mucin layer thicknesses, 0.32 μm (column prepared with a 1:2 wt % of mucin to PC IAM particles) and 0.36 μm (column prepared with a 2:1 wt % of mucin to PC IAM particles)(Table 8). […] The influence of pH on drug retention time was measured by using different mobile phase buffers adjusted to pH 3, 5 or 7 on either the 0.32 μm or 0.36 μm column.
Capacity factors were calculated from drug retention times collected on columns having two different mucin layer thicknesses, 0.32 μm (column prepared with a 1:2 wt % of mucin to PC IAM particles) and 0.36 μm (column prepared with a 2:1 wt % of mucin to PC IAM particles).

[5] = single-pass perfusions, cited from earlier work
Caco-2 = details: from literature, cited from earlier work
[6] = determined by linear equation, Table 5
[7] = determined by linear equation, Table 6

Row | Compound | log k′IAM [1] | δ = log k′MIC − log k′IAM [2] | log k′MIC [2] | K′MIC ([2]; Table 5) | k′MIC [2] | Retention Time [2] | Dm [2] | k′MIC (1:2) [4] | (1:2) k′ (pH 3) [4] | (1:2) k′ (pH 5) [4] | (1:2) k′ (pH 7) [4] | k′MIC (2:1) [4] | (2:1) k′ (pH 3) [4] | (2:1) k′ (pH 5) [4] | (2:1) k′ (pH 7) [4] | Peff Loc-I-Gut (×10^−4 cm/s) ([5]; Table 5) | Peff Loc-I-Gut (×10^−4 cm/s) ([5]; Table 9) | % Absorbed ([3]; Table 5) | Peff MIC (×10^−4 cm/s) [2, 6] | K′MIC ([2]; Table 6) | also measured
1 | Cc1cc(=O)n(-c2ccccc2)n1C [Antipyrine] | −0.02 | 1.91 | 1.89 | 77.57 | 77.5714 | 5.5 | 0.0053 | 50.7 | 54.00 | 54.00 | 50.67 | 40.7 | 40.43 | 39.00 | 40.67 | 5.6 ×10^−4 cm/s | 5.6 ×10^−4 cm/s | – | – | – | % Absorbed ([3]; in vivo): 100%
2 | CC(C)NCC(O)COc1ccc(CC(N)=O)cc1 (stereo not drawn) [Atenolol] | – | – | – | – | – | – | – | 39 | 39.00 | 39.00 | 39.00 | 37 | 29.00 | 31.86 | 37.33 | 0.15 ×10^−4 cm/s | 0.2 ×10^−4 cm/s | 50% | – | – | % Absorbed ([3]; Table 6): 50%; Peff Loc-I-Gut (×10^−4 cm/s) ([5]; Table 6): 0.15 ×10^−4 cm/s
3 | CN(CC(=O)O)C(=N)N [Creatine] | – | – | – | 30.43 | 30.4286 | 2.2 | 0.0088 | 25.7 | 39.00 | 39.00 | 39.00 | 24 | 20.43 | 23.29 | 32.33 | 0.3 ×10^−4 cm/s | 0.3 ×10^−4 cm/s | 0% | −0.22 ×10^−4 cm/s | – | –
4 | NS(=O)(=O)c1cc(C(=O)O)c(NCc2ccco2)cc1Cl [Furosemide] | – | – | – | – | – | – | – | 35.7 | 40.67 | 37.33 | 35.67 | 25.7 | 30.43 | 27.57 | 25.67 | 0.3 ×10^−4 cm/s | 0.3 ×10^−4 cm/s | 60% | – | – | –
5 | COCCc1ccc(OCC(O)CNC(C)C)cc1 (stereo not drawn) [Metoprolol] | – | 1.14 | 1.64 | 43 | 43.2857 | 3.1 | 0.0015 | 47.3 | 50.67 | 50.67 | 47.33 | 35.7 | 36.14 | 41.86 | 35.67 | – | – | – | 1.21 ×10^−4 cm/s | 43.29 | Peff MIC (×10^−4 cm/s) [2, 7]: 1.21 ×10^−4 cm/s; Peff Caco-2 (×10^−6 cm/s) (Caco-2; Table 5): 23.7 ×10^−6 cm/s; Peff Caco-2 (×10^−6 cm/s) (Caco-2; Table 6): 23.7 ×10^−6 cm/s
6 | CC(C)NCC(O)COc1cccc2ccccc12 (stereo not drawn) [Propranolol] | 1.75 | 0.10 | 1.85 | 70.43 | 70.4286 | 5.0 | 0.0034 | – | 75.67 | 92.33 | 99.00 | – | 49.00 | 59.00 | 99.00 | – | – | – | 4.24 ×10^−4 cm/s | 70.43 | Peff MIC (×10^−4 cm/s) [2, 7]: 4.24 ×10^−4 cm/s; Peff Caco-2 (×10^−6 cm/s) (Caco-2; Table 5): 21.8 ×10^−6 cm/s; Peff Caco-2 (×10^−6 cm/s) (Caco-2; Table 6): 21.8 ×10^−6 cm/s
7 | NC(=O)N1c2ccccc2C=Cc2ccccc21 [carbamazepine] | – | – | – | 59.00 | 59.0000 | 4.2 | 0.0042 | – | – | – | – | – | – | – | – | 4.3 ×10^−4 cm/s | – | – | 2.96 ×10^−4 cm/s | 59.00 | Peff MIC (×10^−4 cm/s) [2, 7]: 2.96 ×10^−4 cm/s; Peff Caco-2 (×10^−6 cm/s) (Caco-2; Table 5): 19.9 ×10^−6 cm/s; Peff Caco-2 (×10^−6 cm/s) (Caco-2; Table 6): 19.9 ×10^−6 cm/s; Peff Loc-I-Gut (×10^−4 cm/s) ([5]; Table 6): 4.3 ×10^−4 cm/s
8 | C[C@]12C[C@H](O)[C@H]3[C@@H](CCC4=CC(=O)CC[C@@]43C)[C@@H]1CC[C@@H]2C(=O)CO [corticosterone] | 1.60 | 0.18 | 1.78 | – | 60.4286 | 4.3 | 0.0029 | – | 24.00 | 22.33 | 24.00 | – | 20.43 | 20.43 | 24.00 | – | – | – | – | – | % Absorbed ([3]; Table 7): 100%
9 | CCOC(=O)[C@H](CCc1ccccc1)N[C@@H](C)C(=O)N1CCC[C@H]1C(=O)O [enalapril maleate] | – | – | – | 35.86 | 35.8571 | 2.6 | 0.0020 | 34 | 27.33 | 37.33 | 34.00 | 20.7 | 31.86 | 21.86 | 20.67 | 0.2 ×10^−4 cm/s | 0.2 ×10^−4 cm/s | 60% | 0.38 ×10^−4 cm/s | – | Retention Time ([2]; listed as Enalapril maleate): 7.8; k′MIC ([2]; listed as Enalapril maleate): 110.429; stability during the HPLC analyses ([2]; two peaks, hydrolyzed and non-hydrolyzed forms): hydrolyzed to enalaprilat; Bioavailability ([3]; footnotes of Table 4 that tell the two cimetidine and two enalapril maleate lines apart): ^4Bioavailability = 60%;; percent absorption value ([3]; reported in literature, either of two values): 60 and 100
10 | C[C@](N)(Cc1ccc(O)c(O)c1)C(=O)O [α-methyldopa] | – | – | – | 33.29 | 33.2857 | 2.4 | 0.0047 | – | – | – | – | – | – | – | – | 0.2 ×10^−4 cm/s | – | 0% | – | – | Peff MIC (×10^−4 cm/s) [2]: 0.10 ×10^−4 cm/s
